Experiment [1] relates to radiation-induced pneumonitis and lung fibrosis. Put plainly: Thoracic lung irradiation: survival, lung histology, fibrosis. In kind it is in vivo, mouse. The procedure: Our goal is to develop a drug to protect lung from ionizing radiation that is administered subcutaneously and has a favorable risk/benefit profile when administered 24 hours or later after radiation exposure. The drug, BCN 512, originally discovered in the UCLA CMCR, is a novel drug that emerged from high-throughput screening of small molecule libraries, and is now under investigation as a radiation injury mitigator. In our efforts to develop the drug as a lung MCM to treat the Delayed Effects of Acute Radiation Exposure (DEARE), we use the C57BL/6 and C3H mouse models. These models appear to recapitulate human lung fibrosis and pneumonitis, respectively, based upon the distinct sensitivity of the two strains (1, 2).
Radiation fibrosis is a progressive, dose-related, late complication of radiation exposure, with animals and humans surviving for some time with non-lethal damage. […] 512 works by altering the inflammatory infiltrate into the lung.
A: Lung histology of C57BL/6 mice receiving local thoracic radiation (radiation of the lung area) presenting a focal area of increased cellularity and edema on the upper left quadrant. Adjacent to this is increased cellularity (the lacey patterning). The lower right quadrant, emphysema is present with large clear areas indicating where alveoli have collapsed to present large open areas. B. Histopathology of C57BL/6 mouse lung under identical radiation treatment as A, but also treated with 5 mg/kg BCN512 once per day every 24 hours for 5 doses.
In both lobes, significant collapse of alveoli can be seen along with hyper cellularity (dark areas) and pronounced emphysema (large open areas) presenting fibrosis. C, D are separate lobes from the same animal treated identically as above but receiving BCN512 at 5 mg/kg daily for 5 days after 14.5Gy local thoracic radiation.

Experiment [2] has as its system human A549 adenocarcinoma cells. Briefly: A549 xenograft lung colony model in nude mice. In kind it is in vivo. To be noted: 20 mg/kg sc once daily for 5 days, with or without 4 Gy LTI x 3, day 72. The method, then:
LTI alone decreased the number of co […] lonies by 40%. Extensive analysis of the drug doses that would be optimal for exerting effects on tumors in the radiation setting are still needed, but there is no evidence for enhanced tumor growth as a result of radiation treatment with drug, and in fact exactly the opposite. […] Thirty-two nude mice were injected intravenously with 5×10^4 human A549 adenocarcinoma cells on day 1. The drug was administered starting at day 3; 20 mg/kg BCN512 was injected subcutaneously once daily for 5 days. Fractionated radiation was started on day 4, with 4 Gy LTI administered daily for 3 days. Tumors developed very slowly, so the mice were sacrificed on day 72 and the number of nodules in the lungs were counted. There was considerable variation in the irradiated group, with a tendency for lung irradiation to increase the number of tumor colonies. This is not a unique observation that may be ascribed to radiation-induced myeloid cell mobilization.

In experiment [3] the test system is WINT target gene expression. Briefly: Wnt target gene expression. To be noted: FIG. 23.

Regarding `O=[N+]([O-])c1ccc(S(=O)(=O)N2CCN(c3ccccc3)CC2)cc1` [BCN512, 1-[(4-nitrobenezene)sulfonyl]-4-phenyl piperazine], the lung fibrosis histology entry in experiment [1] (14.5Gy local thoracic radiation, 5 mg/kg daily for 5 days, Day 120) was “Absent are the large lesions and pronounced fibrosis”. The “overall survival from pneumonitis and lung fibrosis” value in experiment [1] (18 Gy whole thoracic lung irradiation, 5 mg/Kg sc in Cremophor days 1-5, at 90 days and 160) is on record as “improved overall survival”. In experiment [1] (C57BL/6 mice, 14.5Gy local thoracic radiation, 5 mg/kg once per day for 5 doses), the lung histopathology entry is listed as “Lung tissue is normal with no evident emphysema or edema or hyper cellularity or immune infiltrate”. The “development of radiation fibrosis (late disease)” value in experiment [1] (after 14 Gy, acute delivery (FIG. 18)) is recorded as “mitigates against the development of this late disease”. In experiment [1] (after LTI, day 150), the “inflammatory macrophage content and phenotypic markers in the lung” value was “decrease in inflammatory macrophage content and phenotypic markers”. In addition, in experiment [1] (day 160 after LTI), the “mature macrophage cell content in lung” value was “greatly decreased”. Besides, in experiment [2], the “number of tumor colonies (lung nodules)” value is given as “did not increase the number of tumor colonies”. The “Wnt target gene expression” value in experiment [3] is “induces the WINT target gene expression”.

The record behind these values is US11229635B2, “Method of treating fibrosis” (BCN Biosciences L.L.C., priority 2016, dated 2022).
